# Source: patent US20130323776A1, “CARRIER PEPTIDE FRAGMENT AND USE THEREOF” (Toagosei Co. Ltd., priority 2009, published 2013)
# Ends that are not written are not given here. * marks the point of attachment. FITC = O=C1OC2(c3ccc(O)cc3Oc3cc(O)ccc32)c2ccc(NC(=S)*)cc21; Acp = not defined here
# Tests used:
# [1] = test system: human iPS cells (cell line 201B2-082008KU); assay: Evaluation of cell membrane permeability function in iPS cells, confocal laser scanning microscopy of fluorescently labeled peptide; assay type: cell-based; conditions: 1 μM peptide, 1 or 4 hours culture; for penetration of the cell membrane from outside the cell and transfer into the cytoplasm of iPS cells: human iPS cells on MEF feeder cells, methanol fixed; for foreign substance transfer efficiency toward stem cells such as iPS cells: human iPS cells
# Excerpt: The target cells for transferring the foreign substance were changed from human neonate foreskin fibroblasts to human iPS cells (human induced pluripotent stem cells), and the cell membrane permeability capability of the two samples (constructs for transferring a foreign substance) obtained in Example 1 above was investigated. It should also be noted that the iPS cells (cell line 201B2-082008KU) and the mouse embryonic fibroblast feeder cells (cell line SNL 76/7, hereinafter “MEF”) used in this example were provided by the Yamanaka Research Laboratory of the Institute for Frontier Medical Sciences, Kyoto University (professor Shinya Yamanaka).
# First the obtained MEF were inactivated by a mitomycin C treatment (3 hours) and then trypsinised in a 0.25% trypsin solution containing 1 mM EDTA. After the above treatment, the trypsin was deactivated with culture medium containing FBS, and the MEF were adjusted to a suitable cell density using D-MEM medium (Dulbecco's Modified Eagle Medium: Gibco) containing MEF culture medium (7% FBS: Gibco), 2 mM L-glutamine (Gibco), 50 units/mL penicillin, and 50 μg/mL streptomycin (Gibco), and the abovementioned MEF were seeded onto a culture container (in the form of a culture slide or plate) with a surface coating of 0.1% gelatin. In this case, the MEF were seeded so that the cell density would be approximately 1.25×10^5 cells/mL. Next, the abovementioned cell culture containers were incubated overnight at 37° C. in a 5% CO2 atmosphere.
# Thereafter, the feeder cells were prepared by removing the MEF culture medium and rinsing with PBS.
# Separately, CTK solution (0.25% trypsin solution containing 0.1 mg/mL collagenase IV (Gibco), 1 mM calcium chloride, and 20% KSR (KnockOut® Serum Replacement)) was added to the obtained iPS cell line, the MEF were peeled therefrom, and the cells were rinsed with PBS.
# Next, 1 mL hESC culture medium (i.e., human ES cell medium, in this case, DMEM/F12 culture medium (Gibco) containing 20% KSR (Gibco), 2 mM L-glutamine (Gibco), 0.1% nonessential amino acids (Gibco), 0.1 mM 2-mercaptoethanol (Gibco), 50 units/mL penicillin, and 50 μg/mL streptomycin (Invitrogen, 4 ng/mL bFGF (basic fibroblast growth factor)) was added, the iPS cells were peeled off using a cell scraper, and the colony was broken apart by gentle pipetting.
# A suspension of iPS cells obtained in this manner was seeded onto the feeder cells in the culture containers that had been prepared as described above. Then, the above-mentioned hESC medium was added, and the cell culture containers were incubated overnight at 37° C. in a 5% CO2 atmosphere.
# After incubation overnight, the culture medium was removed from the culture containers, and the abovementioned hESC medium to which one of the 1 mM sample solutions prepared in abovementioned. Example 1 had been added to make a final sample concentration (pipetted concentration) of 1 μM was added to the culture containers. Then the samples were incubated at 37° C. for either 1 or 4 hours in a 5% CO2 atmosphere.
# The cells after 1 hour of culture and cells after 4 hours of culture were each rinsed in PBS (phosphate buffered saline) and fixed with methanol (on ice for 10 min).
# Next, the same treatment as in Example 2 was performed, and the localization within the iPS cells of the peptide that was bonded to the fluorescent dye (i.e., fluorescently labeled) was investigated using a confocal scanning laser microscope. Part of the results are presented herein as micrographs.
# [2] = test system: Human neonate foreskin fibroblasts (ATCC Catalogue No. CRL-2097); assay: Evaluation of cell membrane permeability function, confocal laser scanning microscopy of fluorescently labeled peptide; assay type: cell-based; conditions: 1 μM peptide, 1 or 4 hours culture; for penetration of the cell membrane from outside the cell and transfer into the cytoplasm: methanol fixed
# Experimental: Human neonate foreskin fibroblasts (ATCC Catalogue No. CRL-2097) were used as the eukaryotic cells, and the cell membrane permeability capability of the samples (constructs for transferring a foreign substance) obtained in Example 1 above was investigated.
# More specifically, the abovementioned fibroblasts were cultured in a liquid mixture of 90% Eagle MEM culture medium (containing 0.1% nonessential amino acids, 2 mM L-glutamine, 1 mM sodium pyruvate, and 1.5 g/L sodium hydrogen carbonate) and 10% serum (FBS) as the culture medium.
# The cultured cells were trypsinized for 1 min at 37° C. with a 0.25% trypsin solution. After the abovementioned treatment, the trypsin was deactivated with FBS-containing medium, and a cell suspension (test sample for foreign substance transfer) was prepared by adjusting the cell concentration to approximately 5×10^4 cells/mL with the culture medium.
# Next, 0.5 mL of the abovementioned cell suspension was placed in a designated cell culturing container (culture slide with a surface coating of 0.1% gelatin), and the cells were incubated overnight at 37° C. in a 5% CO2 atmosphere. After incubation the medium was replaced with fresh culture medium, and the 1 mM sample solutions of each of the samples prepared in abovementioned Example 1 were added to a cell culture container so that the final sample concentration (peptide concentration) would be 1 μM. In this case 0.5 μL of sample solution was added to the container. Then the samples were incubated at 37° C. for either 1 or 4 hours in a 5% CO2 atmosphere.
# The cells after 1 hour of culture and the cells after 4 hours of culture were each rinsed in PBS and fixed with methanol (on ice for 10 min).
# Next the methanol-fixed samples (cells) were mounted using Prolong® Gold Antifade Reagent (Invitrogen) that contains the nuclear stain DAPI (4′,6-diamidino-2-phenylindole). Then the localization within the cells of the peptide bonded to the fluorescent dye (i.e., fluorescently labeled peptide) in each test sample (i.e., the abovementioned mounted test samples after methanol fixation) was investigated using a confocal scanning laser microscope. Part of the results are presented herein as micrographs.
Substance,penetration of the cell membrane from outside the cell and transfer into the cytoplasm of iPS cells [1],foreign substance transfer efficiency toward somatic cells such as fibroblasts [2],penetration of the cell membrane from outside the cell and transfer into the cytoplasm [2],foreign substance transfer efficiency toward stem cells such as iPS cells [1]
(FITC-Acp)-RSRKYTSWYVALKRTLKERCLQVVRSLVK ({FITC-Acp}-RSRKYTSWYVALKRTLKERCLQVVRSLVK; not fully specified (C-terminus); printed as (FITC-Acp)-RSRKYTSWYVALKRTLKERCLQVVRSLVK; reading uncertain) [Sample No. 14],transferred into the cytoplasm of iPS cells,extremely high,transferred into the cytoplasm,–
(FITC-Acp)-RRRKRNRDARRRRRKQ ({FITC-Acp}-RRRKRNRDARRRRRKQ; reading uncertain; also: printed as (FITC-Acp)-RRRKRNRDARRRRRKQ) [Sample No. 5],–,–,transferred into the cytoplasm,–
(FAM)-MAKSIRSKHRRQMRMMKRE ({FAM}-MAKSIRSKHRRQMRMMKRE; not fully specified (C-terminus); printed as (FAM)-MAKSIRSKHRRQMRMMKRE) [Sample No. 2],–,–,transferred into the cytoplasm,–
(FAM)-MQRKPTIRRKNLRLRRK ({FAM}-MQRKPTIRRKNLRLRRK; not fully specified (C-terminus); printed as (FAM)-MQRKPTIRRKNLRLRRK) [Sample No. 6],transferred into the cytoplasm of iPS cells,extremely high,transferred into the cytoplasm,extremely high
(FITC-Acp)-KKLKKRNK ({FITC-Acp}-KKLKKRNK; not fully specified (C-terminus); printed as (FITC-Acp)-KKLKKRNK; reading uncertain) [Sample No. 8],almost no passage through the cell membrane,–,almost no passage through the cell membrane,–
(FITC-Acp)-IMRRRGL ({FITC-Acp}-IMRRRGL; not fully specified (C-terminus); printed as (FITC-Acp)-IMRRRGL; reading uncertain) [Sample No. 7],almost no passage through the cell membrane,–,almost no passage through the cell membrane,–
(FITC-Acp)-MARRRRHRGPRRPRPP ({FITC-Acp}-MARRRRHRGPRRPRPP; reading uncertain; also: printed as (FITC-Acp)-MARRRRHRGPRRPRPP) [Sample No. 3],–,–,transferred into the cytoplasm,–
(FITC-Acp)-GRCRRLANFGPRKRRRRRR ({FITC-Acp}-GRCRRLANFGPRKRRRRRR; not fully specified (C-terminus); printed as (FITC-Acp)-GRCRRLANFGPRKRRRRRR; reading uncertain) [Sample No. 4],transferred into the cytoplasm of iPS cells,extremely high,transferred into the cytoplasm,extremely high
